How the values were obtained:
[1] = test system: IL-1α; assay: IL-1α quantification in the growth medium using ELISA; assay type: cell-based, human; conditions: RHE growth medium, 0.1% single dose, after 24 h
Protocol: The release of IL-1α was assayed in 200 μl of the growth medium underneath the RHE at preset sampling times using a highly-sensitive, specific ELISA (enzyme-linked immunosorbent assay) kit according to the manufacturer's instructions. The end-product was quantified at 450 nm.
The underlying growth medium for each RHE was collected immediately after the recovery time and stored at −20° C. in plastic cryo-vials.
Before the test, the medium was conditioned at room temperature. The results were expressed as pg/ml of IL-1α. Concentrations between 3.9 and 250 pg/ml were considered within the range of sensitivity.

[2] = test system: cK-19 (KRT19) mRNA; assay: cK-19 mRNA expression by real-time PCR in reconstructed human epidermis; assay type: cell-based; conditions: RHE, single 20 μl dose at 0.1%
Protocol: (§1) The RHE (SkinEthic®) 0.5 cm^2, which reproduces the morphology of the epidermis, was accurately characterised: a fully-differentiated epidermis develops after 17 days of airlift culture of NHK (normal human keratinocytes) from skin biopsies in a given medium (MCDB153).
(§2) On arrival, the RHE (day 11) were removed from the agarose nutrient solution under a flow of sterile air. The inserts were rapidly plated in six-well plates previously filled with 1 ml of growth medium each at 37° C., […], and 90% relative humidity, taking care to avoid any formation of bubbles underneath the insert.
The substances tested were solubilised in DMSO (Sigma) to obtain a final concentration of 0.2%.
This stock solution was diluted in PBS to achieve the 0.1% of active principle.
The solution was applied with care to each tissue using a micro-pipette in a single dose of 20 μl.
The method is based on the capacity of the glass fibres to bind the nucleic acid in chaotropic concentrated saline solutions. The samples are disrupted in a highly-concentrated solution of guanidinium salts that lyse the cells and inactivate the endogenous RNase. The lysate is diluted with ethanol to make the […] competent for binding with the glass fibre of the filter in the filter cartridge. The RNA binds to the filter, while the other cell components slide freely through the filter. The filter is then washed three times and the RNA is eluted in a solution with a very low ionic strength.
The rationale in this method is based on the use of random primers to begin cDNA synthesis that ensure an efficient synthesis of the first helix of all the RNA molecules present.
(§3) The “Applied Biosystems 7500 real-time PCR” instrument uses PCR chemistry based on fluorescence, the TaqMan assay.
(§4) This technique uses Taqman probes to identify the fluorescent signal: it is highly sensitive and consists in amplifying and quantifying a specific nucleic acid sequence. The PCR product is detected in real time. The DNA, cDNA or RNA are quantified by determining the cycle in which the PCR product can be identified first, and therefore not when the reaction has reached saturation. The product is quantified by detecting the fluorescence measured in each cycle: the entity of the signal is directly proportional to the quantity of product amplified.
The relative quantification is measured from the difference between the expression of the nucleic acid sequence of a sample being tested and the same sequence in the calibration sample.
Each biological sample was processed in triplicate. The Taqman gene expression assay and cDNA (25 ng) were added to the “2× TaqMan Universal PCR Master Mix”, making up to a total volume of 25 μl.
The tissues were homogenised in 300 μl of lysis buffer for […] extraction.
On day 1, the RHE were 12 days old. The substances being tested (in duplicate) and the controls were applied in a single dose (20 μl). The RHE were then incubated without further treatment for 24 hours.

[3] = test system: reconstructed human epidermis (RHE); assay: H&E histology of reconstructed human epidermis; assay type: cell-based; conditions: single acute administration at 0.1%
From the text: as §1
At the end of the study period, the tissues were washed with PBC, fixed in 10% buffered formalin and prepared for histological examination.
The tissue was embedded in paraffin blocks and cut into sections (3-5μ thick) on a microtome. The sections were then transferred to slides, deparaffinised and rehydrated, then stained with haematoxylin and eosin (H&E).
The samples for histology were analysed under the microscope. The overall morphology and any changes by comparison with the negative controls were assessed and recorded in the laboratory report.
The samples for histology were analysed under the Leica microscope DM2500 and recorded using the Leica Application Suite (LAS) software.

[4] = test system: cK-14 (KRT 14) mRNA; assay: cK-14 mRNA expression by real-time PCR in reconstructed human epidermis; assay type: cell-based; conditions: RHE, 0.1%, during the whole study, by comparison with the controls
Protocol: as §1, §2
The substances tested were solubilised in DMSO (Sigma) to obtain a final concentration of 0.2%. […]
as §3
as §4, with “amplified. […]” for “amplified.”

[5] = test system: cK-10; assay: cK-10 immunohistochemical expression in the RHE (separate study); assay type: cell-based, human; conditions: day 17 of differentiation, versus untreated controls
From the text: Finally, in a separate study conducted using similar methods, the expression of cK-10 in the RHE was studied on days 15 and 17 of differentiation, recorded by its immunohistochemical expression. cK-10 is a marker of the terminal differentiation of the keratinocytes at granular and spinal level.

[6] = 24 hours of treatment, day 13, calibrated to DMSO controls
[7] = 48 hours of treatment, day 15, by comparison with the PBS control
[8] = 120 hours of treatment, day 17 (final differentiation), by comparison with the controls

| release of IL-1α [1] | Compound | cK-19 mRNA gene expression [2, 6] | cK-19 mRNA gene expression [2, 7] | cK-19 mRNA gene expression [2, 8] | toxicity (histomorphological analysis, cK-16 expression, IL-1α release) [3] | cK-14 expression (marker of mitotic activity) [4] | cK-10 immunohistochemical expression [5] |
| --- | --- | --- | --- | --- | --- | --- | --- |
| no such release | C/C=C/C=C/C=C/C(=O)OCC [DPRT, 2E,4E,6E-Octa-2,4,6-trienoic acid ethyl ester] | much diminished | not diminished | up-regulation | no relevant signs of toxicity | – | – |
| early but very low release | CC1=C(/C=C/C(C)=C/C=C/C(C)=C/CO)C(C)(C)CCC1 [RET, Retinol] | regulation level resembling the values of the calibrator | diminished | up-regulation | toxicity similar for retinol and 2,4,6-octatrien-1-ol | did not differ significantly | negative |
| no such release | C/C=C/C=C/C=C/CO [PRT, 2E,4E,6E-Octatrien-1-ol] | – | – | – | toxicity similar for retinol and 2,4,6-octatrien-1-ol | – | – |

Reference: patent US9597295B2, “Diene compounds for use in human epidermal cell repair, and pharmaceutical and cosmetic compositions containing them” (GIULIANI S.P.A., priority 2009, dated 2017)
